Experimental findings from US11052092B2, “N-{[2-(piperidin-1-yl)phenyl](phenyl)methyl}-2-(3-oxo-3,4-dihydro-2H-1,4-benzoxazin-7-yl)acetamide derivatives and related compounds as ROR-gamma modulators for treating autoimmune diseases” (Genfit, priority 2017, dated 2021) are described below.

One data set addresses T1, human RORγt (Homo sapiens, UniProt P51449).
T1 construct: the full-length cDNA of human RORγt; expressed in transfected cells; host or cells: COS-7 (monkey kidney)
T1 sequence (P51449 1-497 isoform P51449-2): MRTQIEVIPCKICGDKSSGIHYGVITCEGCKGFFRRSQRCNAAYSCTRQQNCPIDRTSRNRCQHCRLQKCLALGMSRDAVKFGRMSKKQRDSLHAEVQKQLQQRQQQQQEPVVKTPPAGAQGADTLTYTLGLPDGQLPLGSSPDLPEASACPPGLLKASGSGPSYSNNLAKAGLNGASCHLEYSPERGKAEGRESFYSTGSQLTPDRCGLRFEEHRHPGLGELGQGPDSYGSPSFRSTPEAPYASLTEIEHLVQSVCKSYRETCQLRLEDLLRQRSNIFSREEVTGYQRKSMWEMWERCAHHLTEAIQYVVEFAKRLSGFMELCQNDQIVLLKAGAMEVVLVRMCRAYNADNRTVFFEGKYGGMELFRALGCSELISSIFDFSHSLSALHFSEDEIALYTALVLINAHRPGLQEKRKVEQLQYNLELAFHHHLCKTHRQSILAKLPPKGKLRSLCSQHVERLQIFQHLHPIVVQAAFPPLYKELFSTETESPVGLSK
The experiment in a line: RORE Luciferase/RORγt transactivation assay. The format is cell-based. The settings on record: COS-7 cells transfected with human IL-17 promoter luciferase reporter and RORγt plasmid; 20 h with compound; read-out: IC50, RORγt activity inhibition. The method in brief: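 Transactivation read-out: luminescence (Steady-Glo, 30 min at room temperature) from COS-7 cells carrying a RORγt expression plasmid plus a 4.3 kb IL-17 promoter luciferase reporter. Compound exposure was in serum-free DMEM with 0.3% DMSO final. Reported values are IC50 (μM) and Emax (%).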

The subject of another data set is MOG-induced EAE mice. The experiment in a line: Experimental Autoimmune Encephalomyelitis (EAE) study. The format is in vivo, C57BL/6 mice. An excerpt:
8-10 week old, female C57BL/6 mice were purchased from Janvier Lab (St Berthevin, France) and housed for one week before the start of the studies. EAE was induced by immunization with an emulsion of peptide antigen MOG35-55 (Myelin Oligodendrocyte Glycoprotein) ([…], SEQ ID NO: 1) in complete Freund's Adjuvant (CFA), followed by administration of Pertussis Toxin (PTX) in PBS on the day of immunization and day 1 post immunization, following manufacturer recommendation (Hooke, Kit MOG35-55/CFA Emulsion PTX). Animals were treated with drug beginning 2 days before peptide injection. Animals were randomized into groups for treatment by weight, so that the average weight of each group was similar. The groups were segregated by cage. Compounds according to the invention were suspended in Labrafil (M1944 CS) by sonication and animals were dosed twice daily by gavage with 5 mL/kg body weight. The daily doses of Cpd.24 were 30 and 60 mg/kg (b.i.d.) by gavage. […]
Data are expressed as (FIG. 4A) mean (+/−SEM) of clinical score for each group per day and (FIG. 4B). […]
Statistical evaluation of differences between the experimental groups was determined by using two-way Anova followed by a Bonferroni post test. **p<0.005, Vehicle compared with treatments.

In data set [1] the test system is IMQ induced psoriasis in mice. The data set can be described thus: Imiquimod (IMQ) induced psoriasis study, cumulative clinical score. The format is in vivo, C57BL/6 female mice. The method, then: (§1) 8-10 weeks C57BL/6 female mice received a daily topical dose of 62.5 mg/mouse IMQ cream (Aldara® cream 5%; 3M pharmaceuticals, Sweden) on the shaved back and the right ear for 7 consecutive days. Control mice were treated similarly with a control vehicle cream (Vaseline). Test compound (Cpd 24) was orally administered daily from day 0 to day 7 at 3 mg/mL (30 mg/kg). Test compound was given 8 hours before IMQ application. Mice were killed at day 7, 4 h after the last test compound treatment to analyse skin inflammation parameters.
The severity of inflammation of the back skin was determined using the following criteria. An objective scoring system was developed based on the clinical Psoriasis Area and Severity Index (PASI), except that for the mouse model the affected skin area is not taken into account in the overall score. Erythema, scaling, and thickening were scored independently on a scale from 0 to 4: 0: none; 1: slight; 2: moderate; 3: marked; 4: severe. The cumulative score (erythema plus scaling plus thickening) served as a measure of the severity of inflammation (scale 0-12).
(§2) Statistical evaluation of differences between the experimental groups was determined by using two-way Anova followed by a Bonferroni post test. *** p<0.001, IMQ-Vehicle compared with treatment.

A further data set concerns MPO activity. The data set can be described thus: MPO activity in ear skin homogenates of the IMQ induced psoriasis study. The format is in vivo, C57BL/6 female mice. The settings on record: 30 mpk oral, in comparison with IMQ-vehicle group. The method, then: as §1
Ear skin tissue were homogenized in PBS containing a protease inhibitor cocktail (P8340, Sigma-Aldrich) by Ultra Turrax, centrifuged and the supernatant was discarded. The pellet was resuspended in 0.5 mL PBS containing 0.5% hexadecyltrimethyl ammonium bromide (HTAB) and 5 mM ethylene-diamine tetra-acetic acid (EDTA). Following centrifugation, 100 μL of supernatants were placed in test tubes with 200 μL PBS-HTAB-EDTA, 1 mL Hanks' balanced salt solution (HBSS), 100 μL of o-dianisidine dihydrochloride (1.25 mg/mL), and 100 μL H2O2 0.05%. […] The MPO activity was determined as absorbance at 460 nm in comparison with medium.
as §2

By IC50 is commonly meant the concentration that gives 50% inhibition. With `Cc1ccc(C(NC(=O)Cc2ccc3c(c2)CC(=O)N3)c2ccc(C)o2)c(N2CCCCC2)c1` (stereo not drawn) [Cpd. 24, N-{[4-methyl-2-(piperidin-1-yl)phenyl](5-methylfuran-2-yl)methyl}-2-(2-oxo-2,3-dihydro-1H-indol-5-yl)acetamide], the IC50 at human RORγt was in the range of 10 to 100 nM. For the same molecule, the clinical disease score result with MOG-induced EAE mice (by day 15 and maintained through in vivo protocol duration) was “Clinical disease score improvement was apparent”. In the data set on MOG-induced EAE mice (p/os at 60 mg/kg (b.i.d.) for 20 days), the “onset of EAE” value is “delay the onset of EAE”. Further, in data set [1] (after test compound administration, 30 mg/kg orally daily day 0 to day 7), the adverse effect entry was “no adverse effect was observed”. Further, the “cumulative score (erythema plus scaling plus thickening)” value in data set [1] (orally 30 mpk, day 5, compared to control treatment) is listed as “significant decrease”. Moreover, the “MPO activity in ear homogenates” value in the data set with MPO activity is given as “reduced MPO activity”.
